This is an account of results in article PMC10025480 (Frontiers in Pharmacology, 2023).

Assay [1] has as its system human bronchial smooth muscle. As to conditions: cited from earlier work.
Another assay has as its system HEK293 cells. The assay is described as follows: Whole-cell patch clamp (QPatch), parental HEK cells lacking TMEM16A. Type of assay: cell-based. As to conditions: compared with HEK-TMEM16Aacd cells at 0 nM [Ca2+]i. How it is done: Current rectification ratios were calculated by dividing the magnitude of the outward current at +90 mV by the magnitude of the inward current at −90 mV.
(In general: Patch clamp records ionic current or voltage across a cell membrane.)

The subject of assay [2] is human vascular smooth muscle preparations. Conditions: ref Papp et al., 2019; cited from earlier work.
On the set-up of assay [3]: method as in Papp et al., 2019. As to conditions: PAH patients; ref Papp et al., 2019; cited from earlier work.

As for `O=C(Nc1ccc([N+](=O)[O-])cc1Cl)c1cc(Cl)ccc1O` [niclosamide], in assay [1] (ref Danahay et al., 2020b), the “relaxation of human bronchial smooth muscle” value is given as “confirmed”. The “effect on freshly isolated human bronchial smooth muscle” value in assay [1] (ref Miner et al., 2019) was “relax”. The “effect on currents in parental HEK cell line” value in the assay with HEK293 cells was “Quantitatively similar effects”.
For `CCc1oc2ccccc2c1C(=O)c1cc(Br)c(O)c(Br)c1` [benzbromarone], the “effect on vascular smooth muscle in vitro” value in assay [2] is “relax”. Moreover, the pulmonary artery pressure result in assay [3] is reported as “paradoxical increase”.
